Measurements published in patent US20250295686A1, “COMBINATION DECITABINE AND MPS1 INHIBITOR THERAPY TO PRIME CANCER IMMUNOGENICITY” (Dana-Farber Cancer Institute, Inc., priority 2021, published 2025).
“Also recorded” adds a separate entry of the source.

Columns and labels:
Format in all cases: cell-based, human
STING pathway = experiment: Screening of DNA-damaging agents: CXCL10 / IFN-β ELISA in conditioned medium of H1944 cells after pulse treatment
Source text: (§1) Due to their particular hypersensitivity, H1944 cells were utilized as a model system in which to conduct an unbiased screen of cytotoxic chemotherapies or targeted DNA-damaging agents for their ability to upregulate endogenous 2′3′-cGAMP production following pulse treatment, including cGAS-deficient H2122 cells as a counter-screen (FIGS. 3A and 3B). […] Additionally, hydroxyurea or nocodazole were included as controls to induce S-phase or M-phase cell cycle arrest. The IC50 was identified for each compound for cell viability in H1944 cells, and this concentration was utilized for the screen (FIG. 4A and Table 1). It was shown that each agent induced cellular cytotoxicity and/or DNA-damage response at this concentration, as measured by the induction of propidium iodide positive cells, cleaved PARP fragments, or histone TH2A.X expression (FIGS. 4B and 4C).
(§2) Human IFN-β (Thermo Fisher Scientific, Cat. #414101), human CXCL10 (R&D systems, Cat. #DIP100), mouse CXCL10 (R&D systems, Cat. #DY466), and 2′3′-cGAMP (Cayman Chemical, Cat. #501700) ELISAs were performed according to the manufacturer's instructions. Conditioned media from each cell lines was collected after 24 hour culture. Values represent the average of four replicates from at least two independent experiments (biological replicates).

KL NSCLC cell lines = experiment: CXCL10 ELISA after exogenous CDN exposure, KL NSCLC cell lines; conditions: 24 hours
Source text: Treatment with 2′3′-cGAMP or ADU-S100 was utilized to examine the sensitivity of KP or KL NSCLC cell lines to exogenous CDN exposure. […] KL cell response to extracellular CDNs was still modest as compared with endothelial cells (HUVEC) or monocytic THP-1 cells, which also have different membrane permeabilities (FIG. 2C) (Cordova et al., 2021; Luteijn et al., 2019; Ritchie et al., 2019).
as §2

THP1 cells = experiment: STING pathway activation (CXCL10 ELISA, immunoblot) in PMA-differentiated macrophage-like THP1 cells; conditions: 200 nM CFI-402257 screening schedule or 10 μM ADU-S100 24 hours
Protocol: Based on these observations, MPS1 inhibition might also induce micronuclei more efficiently in proliferating cancer cells as compared with non-genomically altered, non-proliferative cells in the TME such as immune cells and endothelial cells.
as §2
Cells were lysed in RIPA buffer containing 1× protease inhibitors (Roche, Cat #11-836-145-001) and phosphatase inhibitors (50 mmol/L NaF and 100 mmol/L Na3VO4). […] Imaging of blots and quantitation of bands was performed using the LICOR Odyssey system, or LAS-3000 (Fujifilm).

H1944 cells [1] = experiment: Cell viability assay to determine an IC50 (CellTiter-Glo); conditions: Homo sapiens, NCI-H1944, 72 hours with drug
Source text: as §1
3000 cells were plated onto 96-well plates, and then cultured for 72 hours in the presence of each DNA-damaging agent at the indicated concentration. Values of CellTiter-Glo Luminescent Cell Viability assay (Promega) […] were normalized to vehicle treated cells. Plates were read on a Tecan Infinite M200 Pro plate reader and analysis was performed using Prism7 (GraphPad Software). All conditions were tested in triplicate.

H1944 cells [2] = experiment: Quantification of micronucleus formation; conditions: 48-hour pulse treatment schedule, 200 nM CFI-402257, 5 nM docetaxel, 200 nM barasertib
Source text: MPS1 is a regulator of the spindle assembly checkpoint (SAC), and MPS1 inhibition in other contexts is known to facilitate massive chromosome missegregation (London and Biggins, 2014). This effect could therefore be related to the formation of micronuclei, known activators of cGAS-STING signaling generated by mitotic slippage and subsequent progression into G1 (Mackenzie et al., 2017). […] Furthermore, induction of CXCL10 mRNA expression in H1944 cells directly correlated with the number of micronuclei induced by these DNA-damaging agents, with CFI-402257 representing the clear outlier (FIG. 5C). Additionally, Lamin B2 over-expression, which is sufficient to inhibit micronuclei disruption (Hatch et al., 2013) and could protect against cGAS recognition, attenuated CXCL10 secretion induced by pulse treatment with MPS1 inhibitor (FIGS. 6A and 6B).
Cells were plated onto chamber slides (CellTreat, Cat #229168), and treated with DNA-damaging agents for 48 hours. […] Z-stack images were subjected to maximum projection followed by quantitative analysis using CellSens. All samples were imaged and analyzed with the same setting throughout the experiments. The number of micronuclei were counted from three different fields for each sample. […] Slides were imaged with Zeiss LSM 880 confocal microscopy, and colocalization was determined using ImageJ.

IC50 (H1944 cells [1]) [nM]	SMILES	STING signaling activation in H1944 cells (STING pathway; 200 nM CFI-402257 screening schedule vs 10 μM ADU-S100 24 hours)	CXCL10 secretion, STING^Absent KL cell lines (KL NSCLC cell lines; A549, H23, A427, up to 100 μM)	CXCL10 secretion, STING^Low KL cells (KL NSCLC cell lines; H1944, H2122, H647, H1355, 3.125-100 μM)	STING pathway activation in macrophage-like THP1 cells (THP1 cells)	CXCL10 secretion in H1944 cells following 48-hour pulse treatment (STING pathway; H1944 cells, IC50-based screening concentration, ELISA of conditioned medium)	CXCL10 induction at lower concentrations (STING pathway; H1944 cells, concentrations below the IC50, pulse treatment)	micronuclei formation (H1944 cells [2])
–	Nc1ncnc2c1ncn2[C@@H]1O[C@@H]2COP(=O)([S-])O[C@@H]3[C@H](O)[C@@H](COP([O-])(=S)O[C@H]2[C@H]1O)O[C@H]3n1cnc2c(N)ncnc21.[Na+].[Na+] (some centres unmarked) [ADU-S100]	negligible impact	failed to respond	dose-dependent manner	high sensitivity	–	–	–
3.97	CC(=O)O[C@@]12CO[C@@H]1C[C@H](O)[C@@]1(C)C(=O)[C@H](O)C3=C(C)[C@@H](OC(=O)[C@H](O)[C@@H](NC(=O)OC(C)(C)C)c4ccccc4)C[C@@](O)([C@@H](OC(=O)c4ccccc4)[C@H]21)C3(C)C [docetaxel]	–	–	–	–	induce significant CXCL10 secretion; also recorded: partially activated CXCL10 production	not upregulated	generated micronuclei
